Measured values published in patent US7345018B2, “Method of treating side effects induced by therapeutic agents” (Reception ApS, priority 2002, dated 2008).

What was measured:
[1] = patients, nephro- and ototoxic side effects; cited from earlier work
megalin [2] = conditions: relative to gentamicin; cited from earlier work
cubilin = target: T1, cubilin (Oryctolagus cuniculus, UniProt U3KLX7); assay: BIAcore analysis of binding to cubilin; conditions: for effect of reduction of disulfide-bridges on binding to cubilin: reduced receptor (reducing agent)
T1 construct: Megalin and cubilin purified from rabbit kidney cortex; from tissue
T1 sequence (U3KLX7 20-3539): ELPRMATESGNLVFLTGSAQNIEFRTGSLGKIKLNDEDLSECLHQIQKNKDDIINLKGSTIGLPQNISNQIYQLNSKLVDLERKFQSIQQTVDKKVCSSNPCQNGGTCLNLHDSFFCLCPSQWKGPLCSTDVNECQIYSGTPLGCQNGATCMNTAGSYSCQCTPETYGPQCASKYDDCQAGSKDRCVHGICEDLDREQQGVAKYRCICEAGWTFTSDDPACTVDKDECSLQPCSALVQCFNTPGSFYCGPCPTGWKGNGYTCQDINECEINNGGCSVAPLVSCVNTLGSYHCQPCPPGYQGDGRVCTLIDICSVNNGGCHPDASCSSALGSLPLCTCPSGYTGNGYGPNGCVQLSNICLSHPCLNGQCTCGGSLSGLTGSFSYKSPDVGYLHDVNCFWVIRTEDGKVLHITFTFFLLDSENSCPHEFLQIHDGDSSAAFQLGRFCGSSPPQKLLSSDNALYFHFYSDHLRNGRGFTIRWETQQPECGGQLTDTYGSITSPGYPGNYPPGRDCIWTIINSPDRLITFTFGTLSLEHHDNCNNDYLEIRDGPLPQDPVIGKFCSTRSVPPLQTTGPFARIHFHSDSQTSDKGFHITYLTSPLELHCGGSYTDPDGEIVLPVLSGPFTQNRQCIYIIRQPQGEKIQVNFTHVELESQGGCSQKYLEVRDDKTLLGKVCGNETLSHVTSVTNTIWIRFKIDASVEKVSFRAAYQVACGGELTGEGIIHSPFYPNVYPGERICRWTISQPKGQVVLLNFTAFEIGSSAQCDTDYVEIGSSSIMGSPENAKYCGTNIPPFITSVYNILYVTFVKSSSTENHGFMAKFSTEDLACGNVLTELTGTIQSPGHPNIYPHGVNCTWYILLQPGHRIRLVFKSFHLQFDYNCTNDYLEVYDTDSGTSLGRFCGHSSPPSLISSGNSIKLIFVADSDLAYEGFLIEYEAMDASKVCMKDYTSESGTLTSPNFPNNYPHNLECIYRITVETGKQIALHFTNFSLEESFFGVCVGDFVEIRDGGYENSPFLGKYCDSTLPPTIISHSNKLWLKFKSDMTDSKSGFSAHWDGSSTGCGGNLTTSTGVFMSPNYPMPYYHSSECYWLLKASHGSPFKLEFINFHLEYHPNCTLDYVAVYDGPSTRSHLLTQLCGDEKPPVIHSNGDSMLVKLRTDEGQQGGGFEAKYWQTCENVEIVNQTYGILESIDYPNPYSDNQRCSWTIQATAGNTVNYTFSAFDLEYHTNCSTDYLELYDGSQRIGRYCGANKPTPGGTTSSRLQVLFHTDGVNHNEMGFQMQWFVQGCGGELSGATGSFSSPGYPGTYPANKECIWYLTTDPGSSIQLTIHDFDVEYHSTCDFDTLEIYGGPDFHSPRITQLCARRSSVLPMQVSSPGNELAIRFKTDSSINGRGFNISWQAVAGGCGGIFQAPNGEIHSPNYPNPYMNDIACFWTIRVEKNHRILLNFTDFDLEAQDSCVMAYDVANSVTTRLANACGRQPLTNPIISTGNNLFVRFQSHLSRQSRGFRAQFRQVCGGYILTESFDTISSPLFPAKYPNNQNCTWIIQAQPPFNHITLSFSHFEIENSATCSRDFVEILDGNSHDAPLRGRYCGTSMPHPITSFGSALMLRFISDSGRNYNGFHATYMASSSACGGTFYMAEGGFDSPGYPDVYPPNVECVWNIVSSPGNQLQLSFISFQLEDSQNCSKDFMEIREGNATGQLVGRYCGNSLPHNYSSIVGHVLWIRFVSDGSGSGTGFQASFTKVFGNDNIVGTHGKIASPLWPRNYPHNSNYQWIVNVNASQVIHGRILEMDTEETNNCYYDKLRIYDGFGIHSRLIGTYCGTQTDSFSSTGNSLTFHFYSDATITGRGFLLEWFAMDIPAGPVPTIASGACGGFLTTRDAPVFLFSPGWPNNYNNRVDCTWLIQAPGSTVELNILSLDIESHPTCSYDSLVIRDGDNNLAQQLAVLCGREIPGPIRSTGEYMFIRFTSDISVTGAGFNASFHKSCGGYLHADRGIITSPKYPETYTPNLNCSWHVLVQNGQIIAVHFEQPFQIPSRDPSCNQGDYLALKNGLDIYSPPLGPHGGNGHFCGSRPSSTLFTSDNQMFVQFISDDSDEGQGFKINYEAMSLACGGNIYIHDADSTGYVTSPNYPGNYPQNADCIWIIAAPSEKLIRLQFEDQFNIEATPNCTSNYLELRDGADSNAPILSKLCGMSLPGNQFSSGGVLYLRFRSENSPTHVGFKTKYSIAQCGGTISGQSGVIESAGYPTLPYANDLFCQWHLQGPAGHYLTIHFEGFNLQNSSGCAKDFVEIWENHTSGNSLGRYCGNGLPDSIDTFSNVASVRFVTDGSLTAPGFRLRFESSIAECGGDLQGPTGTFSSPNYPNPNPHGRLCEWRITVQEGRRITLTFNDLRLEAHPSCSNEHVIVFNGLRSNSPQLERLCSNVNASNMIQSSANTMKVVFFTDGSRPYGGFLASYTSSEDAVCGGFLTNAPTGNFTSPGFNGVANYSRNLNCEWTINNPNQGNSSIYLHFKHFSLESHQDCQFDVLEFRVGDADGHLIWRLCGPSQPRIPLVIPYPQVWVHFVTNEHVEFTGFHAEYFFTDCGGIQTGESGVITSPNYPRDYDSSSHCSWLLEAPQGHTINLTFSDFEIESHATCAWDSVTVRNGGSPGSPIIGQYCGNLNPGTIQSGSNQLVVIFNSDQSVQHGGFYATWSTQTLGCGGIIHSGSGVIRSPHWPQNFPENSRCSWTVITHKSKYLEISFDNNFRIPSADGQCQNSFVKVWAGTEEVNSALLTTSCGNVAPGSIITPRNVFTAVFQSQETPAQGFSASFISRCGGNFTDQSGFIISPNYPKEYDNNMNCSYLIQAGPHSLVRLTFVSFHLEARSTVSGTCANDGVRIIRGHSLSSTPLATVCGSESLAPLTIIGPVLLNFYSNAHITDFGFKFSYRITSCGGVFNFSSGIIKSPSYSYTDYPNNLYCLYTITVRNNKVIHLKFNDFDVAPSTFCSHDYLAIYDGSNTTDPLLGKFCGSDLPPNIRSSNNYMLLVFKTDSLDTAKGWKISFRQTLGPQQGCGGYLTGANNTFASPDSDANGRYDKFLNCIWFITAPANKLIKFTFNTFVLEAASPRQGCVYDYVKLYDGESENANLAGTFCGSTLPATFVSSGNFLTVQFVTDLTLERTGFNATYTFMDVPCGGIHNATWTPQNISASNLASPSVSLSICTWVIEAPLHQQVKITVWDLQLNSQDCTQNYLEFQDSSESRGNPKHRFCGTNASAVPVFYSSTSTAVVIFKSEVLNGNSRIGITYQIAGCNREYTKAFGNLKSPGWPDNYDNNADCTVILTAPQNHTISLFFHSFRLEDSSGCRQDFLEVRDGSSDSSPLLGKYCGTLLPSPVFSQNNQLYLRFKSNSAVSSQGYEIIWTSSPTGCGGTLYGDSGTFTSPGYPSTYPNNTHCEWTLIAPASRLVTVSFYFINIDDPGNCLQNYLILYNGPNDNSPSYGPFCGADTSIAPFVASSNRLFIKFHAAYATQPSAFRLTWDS

[3] = tested on: cells expressing megalin and cubilin; assay: Inhibition of cellular accumulation of radiolabeled gentamicin; type: cell-based; conditions: FIG. 4
megalin [4] = target: T2, megalin (Mus musculus, UniProt A2ARV4); assay: Uptake of radioactively labelled gentamicin in wildtype and megalin-deficient (knockout) mice; type: in vivo; conditions: wildtype mice, after 24 hours, radioactively labelled
T2 construct: from tissue; host or cells: kidney of living wildtype mice (in vivo); the knockout mice lack the receptor
Method: (§1) Radioactively labelled aminoglycosides (gentamicin) were injected into 26 normal (wildtype) and into 3 megalin-deficient mice (knockout). After 24 hours, the secretion of the aminoglycosides into the urine and their accumulation in the kidneys were determined. In wildtype mice, about 10% of the administered aminoglycosides are accumulated in the kidneys and 40% are secreted into the urine.
(§2) In one embodiment the animal model is a mouse model with an induced megalin gene defect (knockout mouse; Nykjaer, A. et al., Cell 96, 507-515). In these animals, the contribution of megalin and other receptor-mediated or receptor-independent processes to the drug uptake into the kidneys may be tested. The amount of intracellular accumulation of the drug in question as compared to a control having sufficient megalin indicates whether the mechanism of side effects is intracellular accumulation through megalin binding or some other mechanism.

megalin [5] = assay: as above; type: in vivo, mouse; conditions: megalin-deficient knockout mice, after 24 hours
Method: as §1, §2

megalin [6] = assay: BIAcore analysis of binding to megalin
mouse kidney = assay: Inhibition of uptake of radio-labeled gentamicin into mouse kidney; type: in vivo; conditions: intravenous co-infusion, FIG. 5
Excerpt: FIG. 5: Inhibition of uptake of radio-labeled gentamicin into mouse kidney
The drugs were administrated intravenously. […] This is most likely because infused RAP rapidly is cleared from the circulation by uptake into the liver.

megalin [7] = target: T2, megalin; assay: Suppression of radioactive gentamicin uptake into the kidneys of wildtype mice by megalin antagonist; type: in vivo; conditions: co-injection with radioactive gentamicin
Method: Two groups of wildtype mice received an injection of radioactive gentamicin. One group was also injected with polymyxin B, a substance that binds with a high affinity to megalin and displaces gentamicin from the receptor. The administration of polymyxin B reduces the uptake of aminoglycosides into the kidneys by more than 60%.

[8] = addition of EDTA (calcium depletion)

Compound: NCC[C@H](O)C(=O)N[C@@H]1C[C@H](N)[C@@H](O[C@H]2O[C@H](CN)[C@@H](O)[C@H](O)[C@H]2O)[C@H](O)[C@H]1O[C@H]1O[C@H](CO)[C@@H](O)[C@H](N)[C@H]1O [amikacin]
- rate of toxicity [1]: 1-4%
- poorer binding than gentamicin to megalin (megalin [2]): about 5 times

Compound: RAP: receptor-associated protein, a cellular protein comprising about 300 amino acids, known to bind to megalin
- effect of reduction of disulfide-bridges on binding to cubilin (cubilin): significantly inhibited
- inhibition of cellular accumulation of radiolabeled gentamicin [3]: able to inhibit at least partly

Compound: aprotinin
- inhibition of cellular accumulation of radiolabeled gentamicin [3]: inhibit gentamioin uptake

Compound: gentamicin
- binding to cubilin (cubilin; BIAcore, FIG. 3 panel B): direct binding
- effect of EDTA on binding to cubilin (cubilin; [8]): does not abolish binding
- effect of reduction of disulfide-bridges on binding to cubilin (cubilin): does not significantly interefere with ligand binding
- accumulation of administered aminoglycoside in the kidneys (megalin [4]): about 10%
- secretion of administered aminoglycoside into the urine (megalin [4]): 40%
- accumulation of aminoglycoside in the kidneys (megalin [5]): no accumulation
- secretion of antibiotic into the urine (megalin [5]): 40%
- binding to megalin (megalin [6]; BIAcore, FIG. 3 panel A): direct binding
- effect of EDTA on binding to megalin (megalin [6]; [8]): does not abolish binding
- effect of reduction of disulfide-bridges on binding to megalin (megalin [6]; reduced receptor): does not significantly interefere with ligand binding
- inhibition of uptake of radio-labeled gentamicin into mouse kidney (mouse kidney): can be inhibited

Compound: poly-L-aspartate
- inhibition of cellular accumulation of radiolabeled gentamicin [3]: not

Compound: poly-L-lysine
- inhibition of cellular accumulation of radiolabeled gentamicin [3]: can be inhibited
- inhibition of uptake of radio-labeled gentamicin into mouse kidney (mouse kidney): can be inhibited

Compound: polymyxin B
- reduction of uptake of aminoglycosides into the kidneys (megalin [7]): more than 60%
- inhibition of cellular accumulation of radiolabeled gentamicin [3]: inhibit gentamioin uptake
- inhibition of uptake of radio-labeled gentamicin into mouse kidney (mouse kidney): can be inhibited
